How the values were obtained:
[1] = molecular target: T1, β-1,4-Galactosyltransferase 7 (β4GalT7) (Homo sapiens, UniProt Q9UBV7); experiment: HPLC assay of GalXylNap formation from XylNap and UDP-Gal; assay type: biochemical
T1 construct: gene B4GALT7
T1 sequence (Q9UBV7 81-327): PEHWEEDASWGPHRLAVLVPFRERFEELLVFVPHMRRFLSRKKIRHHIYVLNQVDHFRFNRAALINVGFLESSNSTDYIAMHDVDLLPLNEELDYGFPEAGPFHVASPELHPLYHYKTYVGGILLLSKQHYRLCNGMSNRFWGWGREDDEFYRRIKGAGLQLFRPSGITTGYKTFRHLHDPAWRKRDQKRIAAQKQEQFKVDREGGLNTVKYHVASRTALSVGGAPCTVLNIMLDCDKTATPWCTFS
From the text: HPLC assay of GalXylNap formation from XylNap and UDP-Gal on β-1,4-Galactosyltransferase 7 (β4GalT7) | display concentration-dependent inhibition of β4GalT7.

[2] = molecular target: T1, β-1,4-Galactosyltransferase 7 (β4GalT7); experiment: STD NMR; assay type: binding

Row | IC50 [1] [µM] | SMILES | STD NMR [2]
1 | 188 | O=P(O)(O)CP(=O)(O)OCCO[C@@H]1COC(O)[C@H](O)[C@H]1O (mixture of isomers) [compound 4, 4-O-(2-(Methylene-diphosphoryl)-hydroxyethyl)-α/β-D-xylopyranose] | 
2 |  | CC(=O)N[C@H]1[C@@H](OP(=O)(O)OP(=O)(O)OC[C@H]2O[C@@H](n3ccc(=O)[nH]c3=O)[C@H](O)[C@@H]2O)O[C@H](CO)[C@H](O)[C@@H]1O [UDP-GalNAc] | β4GalT7 tolerates an N-acetyl group at C2 of the sugar residue
